The assay deals with T1, P2X7 receptor (Homo sapiens, UniProt Q99572).
T1 construct: expressed in transfected cells; host or cells: HEK.293 cells, transient transfection
T1 sequence (Q99572 1-595): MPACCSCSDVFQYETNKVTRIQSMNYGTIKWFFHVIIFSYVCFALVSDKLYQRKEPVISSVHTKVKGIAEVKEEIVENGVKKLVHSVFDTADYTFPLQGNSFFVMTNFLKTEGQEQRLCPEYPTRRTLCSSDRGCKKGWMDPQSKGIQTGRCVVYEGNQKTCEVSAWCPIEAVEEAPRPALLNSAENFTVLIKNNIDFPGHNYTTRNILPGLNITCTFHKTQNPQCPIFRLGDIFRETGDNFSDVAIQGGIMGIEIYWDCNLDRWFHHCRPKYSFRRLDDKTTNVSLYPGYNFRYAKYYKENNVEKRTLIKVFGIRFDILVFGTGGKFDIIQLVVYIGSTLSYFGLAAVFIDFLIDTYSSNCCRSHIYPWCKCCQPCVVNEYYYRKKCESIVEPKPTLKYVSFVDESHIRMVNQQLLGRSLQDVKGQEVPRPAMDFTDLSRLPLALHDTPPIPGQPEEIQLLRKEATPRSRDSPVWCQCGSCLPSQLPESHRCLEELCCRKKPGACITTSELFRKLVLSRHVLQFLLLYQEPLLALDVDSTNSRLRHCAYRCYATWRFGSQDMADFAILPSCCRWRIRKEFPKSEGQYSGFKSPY
Briefly: Pore-forming assay (Yo Pro-1 dye uptake), P2X7 receptor functional assay. Format: cell-based. The note with it: P2X7 transfected HEK.293 cells, Bz-ATP 30 μM, Yo Pro-1 1 μM, triplicate. The text has this:
Non-radioactive versions of the Imaging Agents illustrated in Table I were screened in a P2X7 receptor functional assay. This assay is described in Example 9 and is based upon the ability of the P2X7 receptor to form a non-selective pore in P2X7 transfected HEK.293 cells upon activation with an agonist, thereby allowing dye to permeate the cells. The non selective P2X channel antagonist used as a reference inhibitor for the evaluation of the non-radioactive compound of the invention was pyridoxal-phosphate-6-azophenyl-2′,4′-disulfonate (PPADS), and the results of the assay are provided in Table I above.
The assay method used was based on the ability of the DNA binding dye, Yo Pro-1 (quinolinium, 4[3-methyl-2(3H)-benzoxazolylidene) methyl]-1-[3-(trimethyl-ammonio) propyl]-[…]) to enter through the dilated or “large pore form” of the P2X7 receptor and to bind to intracellular DNA/RNA whereupon it increases fluorescence intensity. Yo Pro-1 was therefore used to quantify inhibition of P2X7 function. This assay was based on the methods published by Michel et al., (B.J. Pharmacol 1998; 125: 1194-1201).
Initially, HEK.293 cells were transiently transfected using LipofectamineTMLTX (Invitrogen) for 72 hrs with P2X7 cDNA. 48 hours prior to use the cells were seeded into poly-D-lysine coated 96-well black-walled, clear bottomed plates, at a density of 30,000 cells/well. Stock solutions of each test compound were prepared at a concentration of 40 mM in 100% DMSO
Following the 48 hour incubation the culture medium was removed from the transfected cells, the cells were washed once and placed in pre-warmed sucrose assay buffer (Sucrose: 280 mM, KCl: 5 mM, CaCl2: 0.5 mM, glucose: 10 mM, HEPES: 10 mM, N-methyl-D-glucamine: 10 mM; pH7.4). The test compounds were added to the plate at a concentration of 10 μM and 100 nM in triplicate and incubated at 37° C. for 30 minutes. The final DMSO concentration in the assay was 1%. After this time Yo Pro-1 dye and Bz-ATP solution was added at concentrations of 1 μM and 30 μM respectively for 60 minutes at 37° C. The fluorescence was then read at 485 nm excitation and 530 nm emission.
The non-selective P2X channel antagonist PPADS was used as a reference inhibitor in the assay. A dose-response to PPADS was performed on the assay plate using a starting concentration of 200 μM followed by a 1 in 6 serial dilution covering 200 μM to 0.4 nM. For each compound data set, a percentage inhibition value was calculated based on the three assay points generated.

Consider `O=C1CSC(=O)N1C(CCc1ccncc1)COc1ccc(-c2cc([N+](=O)[O-])ccc2F)cc1` (stereo not drawn) [Non-radioactive Imaging Agent 2, 3-[1-(2′-Fluoro-5′-nitro-biphenyl-4-yloxymethyl)-3-pyridin-4-yl-propyl]-thiazolidine-2,4-dione], for which the “% Inhibition” value was 22.0% (test compound 100 nM) and 72.0% (test compound 10 μM).
For `O=C(CC12CC3CC(CC(C3)C1)C2)Nc1cccc2nc(NCCNCCOCC[18F])ccc12` [Non-radioactive Imaging Agent 3] the same measures were 0.00% and 62.0%.
In the case of `[18F]c1ncccc1Cn1nnnc1-c1cccc(Cl)c1Cl` [Non-radioactive Imaging Agent 5], the “% Inhibition” value by setting is: (test compound 100 nM) 10.0%; (test compound 10 μM) 69.6%.
